Source: ChEMBL document CHEMBL3045261, “Study on the quantitative structuretoxicity relationships of benzoic acid derivatives in rats via oral LD50” (Med Chem Res, 2009)

System: Rattus norvegicus
Experiment: Toxicity in po dosed Rattus norvegicus (rat)
Conditions: in vivo

Question: With `O=C(O)c1c(Cl)ccc(Cl)c1O` as the compound, how does the pLD50 read?
Answer: 7.35

Question: Which pLD50 does the source give for `COC(=O)c1cc([N+](=O)[O-])ccc1Cl` here?
Answer: 8.59

Question: How did the pLD50 turn out when `Cc1ccc(OC(=O)c2ccccc2O)cc1` was run?
Answer: 7.17

Question: `COC(=O)c1cccc(C)c1O` was tested. Which pLD50 did it give?
Answer: 8.25

Question: How did the pLD50 turn out when `CC(C)COC(=O)c1ccccc1O` was run?
Answer: 7.35

Question: Which pLD50 does the source give for `CC(C)CCOC(=O)c1ccccc1O` here?
Answer: 8.1

Question: For `O=C(O)c1c(Cl)ccc(Cl)c1Cl` [2,3,6-TRICHLOROBENZOIC ACID], which pLD50 is on record?
Answer: 6.48

Question: With `COc1cccc(OC)c1C(=O)O` [2,6-DIMETHOXYBENZOIC ACID] as the compound, how does the pLD50 read?
Answer: 6.21

Question: With `COC(=O)c1ccccc1OC(N)=O` [2-(AMINOCARBONYL)OXYBENZOIC ACID METHYL ESTER] as the compound, how does the pLD50 read?
Answer: 7.82

Question: Which pLD50 does the source give for `O=C(O)c1ccccc1C(=O)c1ccccc1` [2-BENZOYLBENZOIC ACID] here?
Answer: 8.43

Question: Which pLD50 does the source give for `O=C(O)Cc1ccccc1C(=O)O` [2-CARBOXYBENZENEACETIC ACID] here?
Answer: 6.21

Question: How did the pLD50 turn out when `CNc1ccccc1C(=O)OC` [2-METHYLAMINOBENZOIC ACID METHYL ESTER] was run?
Answer: 8.13

Question: How did the pLD50 turn out when `Nc1c(Cl)cc(Cl)cc1C(=O)O` [3,5-DICHLOROANTHRANILIC ACID] was run?
Answer: 8.32

Question: How did the pLD50 turn out when `O=C(O)c1cc([N+](=O)[O-])cc([N+](=O)[O-])c1O` [3,5-DINITROSALICYLIC ACID] was run?
Answer: 6.76

Question: `COc1c(Cl)ccc(Cl)c1C(=O)O` [3,6 DICHLOROMETHOXYBENZOIC ACID] was tested. Which pLD50 did it give?
Answer: 6.95

Question: With `O=C(O)c1ccc(Cl)c([N+](=O)[O-])c1` [4-CHLORO-3-NITROBENZOIC ACID] as the compound, how does the pLD50 read?
Answer: 8.06

Question: Which pLD50 does the source give for `CCOC(=O)c1ccc(OC)cc1` [4-METHOXYBENZOIC ACID ETHYL ESTER] here?
Answer: 7.62

Question: `CCOC(=O)c1ccc([N+](=O)[O-])cc1` [4-NITROBENZOIC ACID ETHYL ESTER] was tested. Which pLD50 did it give?
Answer: 7.89

Question: With `O=C(O)c1ccc([N+](=O)[O-])cc1` [4-NITROBENZOIC ACID] as the compound, how does the pLD50 read?
Answer: 7.58

Question: Which pLD50 does the source give for `O=C(Cl)c1ccc([N+](=O)[O-])cc1` [4-NITROBENZOYL CHLORIDE] here?
Answer: 8.63

Question: How did the pLD50 turn out when `O=C(O)c1cc(Cl)ccc1O` [5-CHLOROSALICYLIC ACID] was run?
Answer: 5.52

Question: `Nc1ccc(C(=O)O)cc1` [AMINOBENZOIC ACID] was tested. Which pLD50 did it give?
Answer: 8.7

Question: How did the pLD50 turn out when `Nc1ccccc1C(=O)O` [ANTHRANILIC ACID] was run?
Answer: 8.6

Question: With `CC(=O)Oc1ccccc1C(=O)O` [ASPIRIN] as the compound, how does the pLD50 read?
Answer: 5.3

Question: How did the pLD50 turn out when `CCOC(=O)c1ccc(N)cc1` [BENZOCAINE] was run?
Answer: 8.02

Question: With `CC(C)CCOC(=O)c1ccccc1` [BENZOIC ACID 1-(3-METHYL)BUTYL ESTER] as the compound, how does the pLD50 read?
Answer: 8.75

Question: For `CC(C)OC(=O)c1ccccc1` [BENZOIC ACID 1-METHYLETHYL ESTER], which pLD50 is on record?
Answer: 8.22

Question: `O=C(OCC1CO1)c1ccccc1` (centres undefined) [BENZOIC ACID 2,3-EPOXYPROPYL ESTER] was tested. Which pLD50 did it give?
Answer: 7.25

Question: `CC(C)COC(=O)c1ccccc1` [BENZOIC ACID 2-METHYLPROPYL ESTER] was tested. Which pLD50 did it give?
Answer: 8.63

Question: Which pLD50 does the source give for `O=C(Oc1cccc(O)c1)c1ccccc1` [BENZOIC ACID 3-HYDROXYPHENYL ESTER] here?
Answer: 6.68

Question: For `CC(C)=CCOC(=O)c1ccccc1` [BENZOIC ACID 3-METHYL-2-BUTENYL ESTER], which pLD50 is on record?
Answer: 8.46

Question: For `Cc1ccc(OC(=O)c2ccccc2)cc1` [BENZOIC ACID 4-METHYLPHENYL ESTER], which pLD50 is on record?
Answer: 7.88

Question: With `CCCCCCOC(=O)c1ccccc1` [BENZOIC ACID HEXYL ESTER] as the compound, how does the pLD50 read?
Answer: 9.42

Question: For `C=COC(=O)c1ccccc1` [BENZOIC ACID VINYL ESTER], which pLD50 is on record?
Answer: 8.09

Question: How did the pLD50 turn out when `O=C(O)c1ccccc1` [BENZOIC ACID] was run?
Answer: 7.44

Question: With `O=C(Cl)c1ccccc1` [BENZOYL CHLORIDE] as the compound, how does the pLD50 read?
Answer: 7.55

Question: How did the pLD50 turn out when `O=C(OCc1ccccc1)c1ccccc1O` [BENZYL SALICYLATE] was run?
Answer: 7.71

Question: For `CCCCOC(=O)c1ccccc1N` [BUTYL 2-AMINOBENZOATE], which pLD50 is on record?
Answer: 8.52

Question: `Nc1cc(Cl)cc(C(=O)O)c1Cl` [CHLORAMBEN] was tested. Which pLD50 did it give?
Answer: 8.16

Question: Which pLD50 does the source give for `CCOC(=O)c1ccccc1` [ETHYL BENZOATE] here?
Answer: 7.65

Question: `CCOC(=O)c1ccccc1O` [ETHYL SALICYLATE] was tested. Which pLD50 did it give?
Answer: 7.191

Question: How did the pLD50 turn out when `O=C(O)c1ccccc1OP(=O)(O)O` [FOSFOSAL] was run?
Answer: 7.01

Question: For `Cc1cccc(C(=O)O)c1O` [HYDROXYTOLUIC ACID], which pLD50 is on record?
Answer: 6.1

Question: With `Nc1ccc(O)c(C(=O)O)c1` [MESALAMINE] as the compound, how does the pLD50 read?
Answer: 7.94

Question: Which pLD50 does the source give for `COC(=O)c1ccccc1OC` [METHYL 2-METHOXYBENZOATE] here?
Answer: 8.241

Question: `COC(=O)c1ccc(OC)cc1` [METHYL 4-METHOXYBENZOATE] was tested. Which pLD50 did it give?
Answer: 8.52

Question: With `COC(=O)c1ccccc1O` [METHYL SALICYLATE] as the compound, how does the pLD50 read?
Answer: 6.79

Question: With `O=C(O)c1ccccc1/N=C/c1ccccc1` [N-BENZYLIDENEANTHRANILIC ACID] as the compound, how does the pLD50 read?
Answer: 6.21

Question: Which pLD50 does the source give for `O=C(O)c1ccc(O)cc1` [PARABEN] here?
Answer: 9.21

Question: Which pLD50 does the source give for `O=C(Oc1ccccc1)c1ccccc1O` [PHENYL SALICYLATE] here?
Answer: 8.01

Question: With `CCCOC(=O)c1cc(O)c(O)c(O)c1` [PROPYL GALLATE] as the compound, how does the pLD50 read?
Answer: 7.65

Question: `NC(=O)c1ccccc1O` [SALICYLAMIDE] was tested. Which pLD50 did it give?
Answer: 6.89

Question: Which pLD50 does the source give for `O=C(O)c1ccccc1O` [SALICYLIC ACID] here?
Answer: 6.791

Question: Which pLD50 does the source give for `O=C(O)c1cc(S(=O)(=O)O)ccc1O` [SULFOSALICYLIC] here?
Answer: 7.52
